Source: the kinase profiling compilation of Christmann-Franck et al. (2016)

Tests used:
Experiment in all cases: radiometric filter-binding kinase assay, Kinase HotSpot
Details in all cases: compound 0.5 µM; ATP 10 µM
[1] = target: AKT1 (human) (UniProt P31749)
[2] = target: CAMK1D (human) (UniProt Q8IU85)
[3] = target: CAMK1G (human) (UniProt Q96NX5)
[4] = target: CAMK2B (human) (UniProt Q13554)
[5] = target: CAMK2D (human) (UniProt Q13557)
[6] = target: CDK1 CCNB1 (human) (UniProt P06493+P14635)
[7] = target: CDK3 CCNE1 (human) (UniProt Q00526+P24864)
[8] = target: CDK4 CCND1 (human) (UniProt P24385+P11802)
[9] = target: CHEK1 (human) (UniProt O14757)
[10] = target: CLK2 (human) (UniProt P49760)
[11] = target: CSNK1G1 (human) (UniProt Q9HCP0)
[12] = target: CSNK1G3 (human) (UniProt Q9Y6M4)
[13] = target: CSNK2A2 (human) (UniProt P19784)
[14] = target: EGFR (human) (UniProt P00533)
[15] = target: EPHA5 (human) (UniProt P54756)
[16] = target: EPHA8 (human) (UniProt P29322)
[17] = target: EPHB3 (human) (UniProt P54753)
[18] = target: FES (human) (UniProt P07332)
[19] = target: FGFR1 (human) (UniProt P11362)
[20] = target: FGFR4 (human) (UniProt P22455)
[21] = target: GRK4 (human) (UniProt P32298)
[22] = target: HIPK3 (human) (UniProt Q9H422)
[23] = target: IKBKB (human) (UniProt O14920)
[24] = target: IKBKE (human) (UniProt Q14164)
[25] = target: MAP2K1 (human) (UniProt Q02750)
[26] = target: MAP3K5 (human) (UniProt Q99683)
[27] = target: MAP4K4 (human) (UniProt O95819)
[28] = target: MAP4K5 (human) (UniProt Q9Y4K4)
[29] = target: MAPK13 (human) (UniProt O15264)
[30] = target: MAPK3 (human) (UniProt P27361)
[31] = target: MARK1 (human) (UniProt Q9P0L2)
[32] = target: MELK (human) (UniProt Q14680)
[33] = target: NTRK3 (human) (UniProt Q16288)
[34] = target: PDPK1 (human) (UniProt O15530)
[35] = target: PHKG1 (human) (UniProt Q16816)
[36] = target: ROCK2 (human) (UniProt O75116)
[37] = target: SLK (human) (UniProt Q9H2G2)
[38] = target: SRMS (human) (UniProt Q9H3Y6)
[39] = target: STK3 (human) (UniProt Q13188)
[40] = target: TAOK3 (human) (UniProt Q9H2K8)
[41] = target: TYRO3 (human) (UniProt Q06418)
[42] = target: ULK2 (human) (UniProt Q8IYT8)

MAP3K5 (human), sequence (Q99683 whole entry, looked up): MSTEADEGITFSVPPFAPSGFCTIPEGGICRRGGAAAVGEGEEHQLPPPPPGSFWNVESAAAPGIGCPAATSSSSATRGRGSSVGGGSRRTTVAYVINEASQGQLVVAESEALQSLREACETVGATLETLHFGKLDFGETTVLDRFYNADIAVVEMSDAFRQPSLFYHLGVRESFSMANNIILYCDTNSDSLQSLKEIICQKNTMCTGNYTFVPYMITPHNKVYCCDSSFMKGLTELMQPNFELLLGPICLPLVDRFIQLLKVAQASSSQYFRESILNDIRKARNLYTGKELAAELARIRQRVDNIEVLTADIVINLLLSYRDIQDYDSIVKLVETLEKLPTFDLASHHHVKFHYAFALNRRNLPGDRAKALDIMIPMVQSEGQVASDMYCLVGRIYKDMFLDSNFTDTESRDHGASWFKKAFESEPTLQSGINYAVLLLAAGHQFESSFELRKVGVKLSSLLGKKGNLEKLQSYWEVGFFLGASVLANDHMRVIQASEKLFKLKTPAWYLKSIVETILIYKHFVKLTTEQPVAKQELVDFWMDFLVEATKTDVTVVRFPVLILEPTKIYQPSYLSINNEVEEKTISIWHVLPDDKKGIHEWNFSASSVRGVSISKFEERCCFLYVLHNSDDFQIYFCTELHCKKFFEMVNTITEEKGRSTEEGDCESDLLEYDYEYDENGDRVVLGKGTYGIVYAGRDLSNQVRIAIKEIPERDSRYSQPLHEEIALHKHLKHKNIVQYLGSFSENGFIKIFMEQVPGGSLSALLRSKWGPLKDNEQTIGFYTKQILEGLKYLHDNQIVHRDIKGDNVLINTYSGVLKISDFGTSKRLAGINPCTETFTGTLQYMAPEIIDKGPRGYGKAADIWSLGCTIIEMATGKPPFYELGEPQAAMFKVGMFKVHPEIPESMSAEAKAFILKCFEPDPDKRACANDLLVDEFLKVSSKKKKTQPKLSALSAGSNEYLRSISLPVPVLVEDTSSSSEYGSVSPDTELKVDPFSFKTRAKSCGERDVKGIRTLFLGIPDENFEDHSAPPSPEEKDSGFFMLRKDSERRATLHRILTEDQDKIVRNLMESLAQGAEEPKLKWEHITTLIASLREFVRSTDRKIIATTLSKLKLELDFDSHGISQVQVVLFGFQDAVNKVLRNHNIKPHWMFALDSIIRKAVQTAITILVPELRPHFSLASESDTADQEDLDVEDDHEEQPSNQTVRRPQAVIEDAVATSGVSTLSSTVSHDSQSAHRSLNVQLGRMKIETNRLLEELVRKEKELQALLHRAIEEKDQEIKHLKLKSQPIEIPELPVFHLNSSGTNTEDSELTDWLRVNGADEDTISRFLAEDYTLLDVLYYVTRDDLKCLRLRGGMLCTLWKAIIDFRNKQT
IKBKE (human), sequence (Q14164 whole entry, looked up): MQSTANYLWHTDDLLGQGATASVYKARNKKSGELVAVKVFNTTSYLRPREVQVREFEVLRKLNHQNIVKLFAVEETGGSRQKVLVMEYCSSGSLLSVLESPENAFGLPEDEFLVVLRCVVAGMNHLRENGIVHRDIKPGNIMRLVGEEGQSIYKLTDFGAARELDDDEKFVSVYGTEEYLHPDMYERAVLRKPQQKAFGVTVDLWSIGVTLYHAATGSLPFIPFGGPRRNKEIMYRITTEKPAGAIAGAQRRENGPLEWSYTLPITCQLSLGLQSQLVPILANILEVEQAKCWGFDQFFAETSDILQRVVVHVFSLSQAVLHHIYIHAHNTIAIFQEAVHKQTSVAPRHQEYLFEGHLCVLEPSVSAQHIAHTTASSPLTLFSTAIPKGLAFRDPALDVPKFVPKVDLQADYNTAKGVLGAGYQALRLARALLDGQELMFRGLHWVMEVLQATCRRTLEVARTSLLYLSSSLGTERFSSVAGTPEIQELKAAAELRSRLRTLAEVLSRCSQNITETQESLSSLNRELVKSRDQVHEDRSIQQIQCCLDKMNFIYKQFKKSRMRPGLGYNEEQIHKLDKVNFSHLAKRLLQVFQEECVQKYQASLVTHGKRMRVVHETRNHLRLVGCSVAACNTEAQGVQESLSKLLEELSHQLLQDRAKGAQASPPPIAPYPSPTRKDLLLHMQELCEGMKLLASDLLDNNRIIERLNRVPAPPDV
SRMS (human), sequence (Q9H3Y6 whole entry, looked up): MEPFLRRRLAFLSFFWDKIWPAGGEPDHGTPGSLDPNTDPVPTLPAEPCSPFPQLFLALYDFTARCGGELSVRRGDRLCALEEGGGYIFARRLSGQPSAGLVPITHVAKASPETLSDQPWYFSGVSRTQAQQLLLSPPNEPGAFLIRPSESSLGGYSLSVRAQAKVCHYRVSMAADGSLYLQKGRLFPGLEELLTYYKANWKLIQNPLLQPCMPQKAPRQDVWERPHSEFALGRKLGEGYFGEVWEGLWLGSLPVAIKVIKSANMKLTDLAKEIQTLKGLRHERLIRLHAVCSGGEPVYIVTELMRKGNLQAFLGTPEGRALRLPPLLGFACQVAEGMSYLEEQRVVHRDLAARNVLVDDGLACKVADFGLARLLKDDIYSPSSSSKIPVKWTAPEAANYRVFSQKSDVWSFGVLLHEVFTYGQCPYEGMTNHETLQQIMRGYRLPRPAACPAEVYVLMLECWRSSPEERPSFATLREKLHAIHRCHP
CAMK2D (human), sequence (Q13557 whole entry, looked up): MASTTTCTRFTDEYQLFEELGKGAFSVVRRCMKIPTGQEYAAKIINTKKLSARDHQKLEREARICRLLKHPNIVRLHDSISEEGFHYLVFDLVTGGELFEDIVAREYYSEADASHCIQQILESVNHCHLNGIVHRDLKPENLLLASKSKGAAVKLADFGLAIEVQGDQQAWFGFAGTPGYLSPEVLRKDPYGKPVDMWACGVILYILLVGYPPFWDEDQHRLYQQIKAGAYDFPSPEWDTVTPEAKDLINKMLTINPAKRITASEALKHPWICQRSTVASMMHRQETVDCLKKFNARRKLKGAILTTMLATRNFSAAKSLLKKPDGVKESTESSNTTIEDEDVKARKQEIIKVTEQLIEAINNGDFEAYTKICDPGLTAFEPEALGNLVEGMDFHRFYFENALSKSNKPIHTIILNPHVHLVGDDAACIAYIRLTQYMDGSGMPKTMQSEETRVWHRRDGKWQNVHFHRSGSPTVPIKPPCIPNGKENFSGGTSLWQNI
MAPK13 (human), sequence (O15264 whole entry, looked up): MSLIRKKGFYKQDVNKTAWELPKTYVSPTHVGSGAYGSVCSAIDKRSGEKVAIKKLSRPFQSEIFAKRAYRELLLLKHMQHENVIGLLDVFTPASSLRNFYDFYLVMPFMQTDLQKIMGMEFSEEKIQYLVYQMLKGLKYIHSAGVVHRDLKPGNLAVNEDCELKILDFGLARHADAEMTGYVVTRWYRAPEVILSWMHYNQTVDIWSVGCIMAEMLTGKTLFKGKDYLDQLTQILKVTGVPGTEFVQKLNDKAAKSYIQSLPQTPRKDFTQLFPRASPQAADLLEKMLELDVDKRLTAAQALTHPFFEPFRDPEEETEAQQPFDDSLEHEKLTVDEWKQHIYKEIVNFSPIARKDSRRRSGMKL
MELK (human), sequence (Q14680 whole entry, looked up): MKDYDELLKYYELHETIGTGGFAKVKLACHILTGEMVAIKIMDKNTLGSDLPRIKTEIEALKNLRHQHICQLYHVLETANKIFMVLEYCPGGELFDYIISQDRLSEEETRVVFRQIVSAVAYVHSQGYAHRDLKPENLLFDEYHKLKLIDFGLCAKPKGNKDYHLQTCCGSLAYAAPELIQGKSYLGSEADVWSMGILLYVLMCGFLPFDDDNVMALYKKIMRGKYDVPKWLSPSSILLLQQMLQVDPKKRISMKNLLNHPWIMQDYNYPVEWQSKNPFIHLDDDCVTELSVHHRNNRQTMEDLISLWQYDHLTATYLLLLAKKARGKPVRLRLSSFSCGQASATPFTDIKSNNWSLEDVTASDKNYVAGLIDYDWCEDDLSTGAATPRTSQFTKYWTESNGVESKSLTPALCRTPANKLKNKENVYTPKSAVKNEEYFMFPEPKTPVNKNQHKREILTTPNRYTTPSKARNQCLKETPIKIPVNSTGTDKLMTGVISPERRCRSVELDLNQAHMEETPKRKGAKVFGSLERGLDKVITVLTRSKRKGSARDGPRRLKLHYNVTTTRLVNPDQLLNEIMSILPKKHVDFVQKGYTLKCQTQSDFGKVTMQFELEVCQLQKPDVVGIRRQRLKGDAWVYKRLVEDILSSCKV
PHKG1 (human), sequence (Q16816 whole entry, looked up): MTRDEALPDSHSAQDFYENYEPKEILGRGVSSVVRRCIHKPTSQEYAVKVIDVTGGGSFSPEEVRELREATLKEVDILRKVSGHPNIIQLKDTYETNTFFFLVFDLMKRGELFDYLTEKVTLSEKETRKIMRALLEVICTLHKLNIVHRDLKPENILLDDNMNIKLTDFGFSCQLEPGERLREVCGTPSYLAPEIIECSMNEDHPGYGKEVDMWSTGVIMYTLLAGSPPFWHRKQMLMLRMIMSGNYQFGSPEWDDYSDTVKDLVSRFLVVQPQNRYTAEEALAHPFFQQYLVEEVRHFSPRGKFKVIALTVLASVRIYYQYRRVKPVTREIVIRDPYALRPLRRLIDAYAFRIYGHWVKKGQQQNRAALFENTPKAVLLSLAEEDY
CLK2 (human), sequence (P49760 whole entry, looked up): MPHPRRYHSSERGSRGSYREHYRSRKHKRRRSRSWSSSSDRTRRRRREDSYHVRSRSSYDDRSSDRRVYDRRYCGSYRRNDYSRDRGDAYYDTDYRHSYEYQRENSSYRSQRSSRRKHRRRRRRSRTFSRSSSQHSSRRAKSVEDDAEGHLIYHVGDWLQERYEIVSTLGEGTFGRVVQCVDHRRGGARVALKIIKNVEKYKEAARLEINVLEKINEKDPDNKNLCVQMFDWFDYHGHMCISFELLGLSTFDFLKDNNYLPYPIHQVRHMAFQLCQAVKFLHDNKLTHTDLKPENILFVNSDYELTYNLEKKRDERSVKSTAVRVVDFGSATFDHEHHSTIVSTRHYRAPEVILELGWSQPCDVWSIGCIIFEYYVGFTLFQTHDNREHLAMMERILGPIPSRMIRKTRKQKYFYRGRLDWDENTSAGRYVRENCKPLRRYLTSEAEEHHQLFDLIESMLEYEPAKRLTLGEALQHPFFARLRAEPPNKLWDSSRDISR

## COc1ccc(OC)c2c(=S)c3ccccc3[nH]c12
[1]
  residual activity: 89.7%
[2]
  residual activity: 104%
[3]
  residual activity: 99.5%
[4]
  residual activity: 104%
[5]
  residual activity: 89.8%
[6]
  residual activity: 97.8%
[7]
  residual activity: 87.7%
[8]
  residual activity: 93.5%
[9]
  residual activity: 92.7%
[10]
  residual activity: 81.2%
[11]
  residual activity: 120%
[12]
  residual activity: 86.2%
[13]
  residual activity: 87.1%
[14]
  residual activity: 91%
[15]
  residual activity: 114%
[16]
  residual activity: 93.8%
[17]
  residual activity: 91%
[18]
  residual activity: 102%
[19]
  residual activity: 89.6%
[20]
  residual activity: 91.1%
[21]
  residual activity: 103%
[22]
  residual activity: 101%
[23]
  residual activity: 103%
[24]
  residual activity: 104%
[25]
  residual activity: 91.7%
[26]
  residual activity: 115%
[27]
  residual activity: 101%
[28]
  residual activity: 95.2%
[29]
  residual activity: 103%
[30]
  residual activity: 103%
[31]
  residual activity: 88.3%
[32]
  residual activity: 96.6%
[33]
  residual activity: 93.6%
[34]
  residual activity: 94.9%
[35]
  residual activity: 83%
[36]
  residual activity: 90.4%
[37]
  residual activity: 80.2%
[38]
  residual activity: 83.5%
[39]
  residual activity: 104%
[40]
  residual activity: 92.7%
[41]
  residual activity: 97.1%
[42]
  residual activity: 94.7%

## Cn1sc(=O)n(Cc2ccccc2)c1=O
[1]
  residual activity: 101%
[2]
  residual activity: 97.1%
[3]
  residual activity: 117%
[4]
  residual activity: 102%
[5]
  residual activity: 98.9%
[6]
  residual activity: 95.7%
[7]
  residual activity: 78.1%
[8]
  residual activity: 98.2%
[9]
  residual activity: 103%
[10]
  residual activity: 98.5%
[11]
  residual activity: 95.2%
[12]
  residual activity: 114%
[13]
  residual activity: 98.5%
[14]
  residual activity: 105%
[15]
  residual activity: 103%
[16]
  residual activity: 94.4%
[17]
  residual activity: 91.3%
[18]
  residual activity: 101%
[19]
  residual activity: 95.6%
[20]
  residual activity: 97.2%
[21]
  residual activity: 101%
[22]
  residual activity: 94.9%
[23]
  residual activity: 112%
[24]
  residual activity: 96.4%
[25]
  residual activity: 83.8%
[26]
  residual activity: 91.5%
[27]
  residual activity: 97%
[28]
  residual activity: 107%
[29]
  residual activity: 97.5%
[30]
  residual activity: 90.4%
[31]
  residual activity: 107%
[32]
  residual activity: 99.3%
[33]
  residual activity: 107%
[34]
  residual activity: 95.5%
[35]
  residual activity: 102%
[36]
  residual activity: 88.8%
[37]
  residual activity: 84.7%
[38]
  residual activity: 96.2%
[39]
  residual activity: 93.2%
[40]
  residual activity: 101%
[41]
  residual activity: 99.9%
[42]
  residual activity: 105%

## Cn1nc2c3c(cccc31)C(=O)c1ccccc1-2
[1]
  residual activity: 99.1%
[2]
  residual activity: 70.3%
[3]
  residual activity: 95.5%
[4]
  residual activity: 95.3%
[5]
  residual activity: 90%
[6]
  residual activity: 108%
[7]
  residual activity: 87.5%
[8]
  residual activity: 98.9%
[9]
  residual activity: 93.7%
[10]
  residual activity: 94.5%
[11]
  residual activity: 102%
[12]
  residual activity: 81.4%
[13]
  residual activity: 86.6%
[14]
  residual activity: 105%
[15]
  residual activity: 126%
[16]
  residual activity: 99.4%
[17]
  residual activity: 85.5%
[18]
  residual activity: 94.4%
[19]
  residual activity: 99.5%
[20]
  residual activity: 108%
[21]
  residual activity: 105%
[22]
  residual activity: 113%
[23]
  residual activity: 103%
[24]
  residual activity: 92.3%
[25]
  residual activity: 86.3%
[26]
  residual activity: 93.1%
[27]
  residual activity: 85.1%
[28]
  residual activity: 86%
[29]
  residual activity: 106%
[30]
  residual activity: 98.9%
[31]
  residual activity: 95.7%
[32]
  residual activity: 83.6%
[33]
  residual activity: 71.6%
[34]
  residual activity: 94.5%
[35]
  residual activity: 86.4%
[36]
  residual activity: 92.3%
[37]
  residual activity: 103%
[38]
  residual activity: 104%
[39]
  residual activity: 88.4%
[40]
  residual activity: 87.6%
[41]
  residual activity: 99.8%
[42]
  residual activity: 109%

## O=C1Nc2ccccc2/C1=C1\Nc2ccccc2\C1=N/O
[1]
  residual activity: 97.8%
[2]
  residual activity: 92.3%
[3]
  residual activity: 101%
[4]
  residual activity: 87.5%
[5]
  residual activity: 60.4%
[6]
  residual activity: 68.7%
[7]
  residual activity: 52.3%
[8]
  residual activity: 70.9%
[9]
  residual activity: 65.3%
[10]
  residual activity: 92.5%
[11]
  residual activity: 86.8%
[12]
  residual activity: 81.9%
[13]
  residual activity: 75%
[14]
  residual activity: 97.1%
[15]
  residual activity: 86.5%
[16]
  residual activity: 91.1%
[17]
  residual activity: 92.3%
[18]
  residual activity: 92.4%
[19]
  residual activity: 52.2%
[20]
  residual activity: 91.9%
[21]
  residual activity: 98.3%
[22]
  residual activity: 89.2%
[23]
  residual activity: 96.1%
[24]
  residual activity: 75.1%
[25]
  residual activity: 99.6%
[26]
  residual activity: 84.3%
[27]
  residual activity: 42%
[28]
  residual activity: 37.8%
[29]
  residual activity: 105%
[30]
  residual activity: 90.4%
[31]
  residual activity: 74.8%
[32]
  residual activity: 33.3%
[33]
  residual activity: 2.17%
[34]
  residual activity: 93%
[35]
  residual activity: 31.5%
[36]
  residual activity: 98.5%
[37]
  residual activity: 78.7%
[38]
  residual activity: 102%
[39]
  residual activity: 19.9%
[40]
  residual activity: 62.6%
[41]
  residual activity: 79.6%
[42]
  residual activity: 103%
